Results as given in US7662576B2, “Method for identifying ester coolers” (International Flavors & Fragrances Inc., priority 2007, dated 2010).
Entries after “also recorded” stand apart in the source; their conditions may differ.

What was measured:
TRPM8 [1] = target: TRPM8 (Homo sapiens, UniProt Q7Z2W7); assay: TRPM8 FLIPR analysis (calcium, Fluo4NW); format: cell-based; conditions: for temporal response: FIG. 2; for comparison of TRPM8 and TRPA1 response / response of TRPM8 channel: FLIPR; for comparison of TRPM8 and TRPA1 response: TRPM8 versus TRPA1; for response of TRPM8 channel: result in words
Description: (§1) Materials. Fluo4NW solution was prepared by solubilizing one Fluo4NW bottle (Molecular Probes #F36206, component A) in 16 mL of Tyrode buffer (pH 7.4, 130 mM NaCl, 5 mM KCl, 2 mM CaCl2, 1 mM MgCl2, 5 mM NaHCO3, 20 mM HEPES). To the resulting solution was then added 100 μL of water-soluble probenecid (Molecular Probes #F36206, component B).
(§2) Cell Preparation. Cells were trypsinized and 10,000 cells were dispensed per well in poly-lysine-coated, black, clear-bottom 384-well plates (35 μL/well in DMEM without antibiotics). Cells were incubated for 24 hours at 37° C. in 5% CO2. The medium was completely eliminated and 20 (TRPA1) or 40 (TRPM8) μL/well of Fluo4NW solution was added to the plates. Cells were incubated for 1 hour at room temperature protected from light. Two addition kinetic measurements were recorded on the instrument for 7.5 (TRPA1) or 15 (TRPM8) minutes.

[2] = cited from earlier work; for relative cooling strength: with respect to WS-3 at 10.0, U.S. Patent Application No. 20050265930; for Relative Cooling Strengths: compared to (−)-Menthol at 100, source Erman (2003)
TRPM8 [3] = target: TRPM8 (Mus musculus, UniProt Q8R4D5); conditions: Behrendt et al. (2004); cited from earlier work
human TRPA1 = target: T1, human TRPA1 (Homo sapiens, UniProt O75762); assay: TRPA1 FLIPR analysis (calcium, Fluo4NW) in TREX FLP-IN HEK 293 cells expressing TRPA1; format: cell-based; conditions: result in words
T1 construct: expressed in transfected cells
Description: Preferred assays to measure TRPA1 channel activity are cell-based assays that utilize cells loaded with ion or voltage-sensitive dyes to report TRPA1 activation. By way of illustration, an inducible TRPA1 cell line was created by stably introducing TRPA1 into TREX-FLPN cells (INVITROGEN). […] In this assay, cells were incubated with a suitable flouroscent dye. […] After obtaining a baseline, various cooling compounds were added and fluorescence measured for several minutes.
as §1, §2
NotI and XhoI restriction sites were also added to the ends to facilitate cloning into expression vectors.
The TRPA1 cDNA was cloned into two expression vectors, pcDNA5/FRT and pcDNA5/FRT/TO (INVITROGEN), using the NotI and XhoI sites. The former vector allows for constitutive expression in mammalian cells the latter for inducible expression in same. Restriction digests, ligations and transformations were performed using routine molecular biological techniques, wherein restriction enzymes were obtained from New England Biolabs, a rapid ligation kit from Roche and competent cells (Max Efficiency DH5 t1 phage-resistant) from INVITROGEN. […]

TRPA1 = conditions: literature; cited from earlier work
mouse TRPA1 channel = mouse TRPA1 channel (Mus musculus, UniProt Q8BLA8); conditions: literature; cited from earlier work
Chain of mouse TRPA1 channel (Q8BLA8 whole entry): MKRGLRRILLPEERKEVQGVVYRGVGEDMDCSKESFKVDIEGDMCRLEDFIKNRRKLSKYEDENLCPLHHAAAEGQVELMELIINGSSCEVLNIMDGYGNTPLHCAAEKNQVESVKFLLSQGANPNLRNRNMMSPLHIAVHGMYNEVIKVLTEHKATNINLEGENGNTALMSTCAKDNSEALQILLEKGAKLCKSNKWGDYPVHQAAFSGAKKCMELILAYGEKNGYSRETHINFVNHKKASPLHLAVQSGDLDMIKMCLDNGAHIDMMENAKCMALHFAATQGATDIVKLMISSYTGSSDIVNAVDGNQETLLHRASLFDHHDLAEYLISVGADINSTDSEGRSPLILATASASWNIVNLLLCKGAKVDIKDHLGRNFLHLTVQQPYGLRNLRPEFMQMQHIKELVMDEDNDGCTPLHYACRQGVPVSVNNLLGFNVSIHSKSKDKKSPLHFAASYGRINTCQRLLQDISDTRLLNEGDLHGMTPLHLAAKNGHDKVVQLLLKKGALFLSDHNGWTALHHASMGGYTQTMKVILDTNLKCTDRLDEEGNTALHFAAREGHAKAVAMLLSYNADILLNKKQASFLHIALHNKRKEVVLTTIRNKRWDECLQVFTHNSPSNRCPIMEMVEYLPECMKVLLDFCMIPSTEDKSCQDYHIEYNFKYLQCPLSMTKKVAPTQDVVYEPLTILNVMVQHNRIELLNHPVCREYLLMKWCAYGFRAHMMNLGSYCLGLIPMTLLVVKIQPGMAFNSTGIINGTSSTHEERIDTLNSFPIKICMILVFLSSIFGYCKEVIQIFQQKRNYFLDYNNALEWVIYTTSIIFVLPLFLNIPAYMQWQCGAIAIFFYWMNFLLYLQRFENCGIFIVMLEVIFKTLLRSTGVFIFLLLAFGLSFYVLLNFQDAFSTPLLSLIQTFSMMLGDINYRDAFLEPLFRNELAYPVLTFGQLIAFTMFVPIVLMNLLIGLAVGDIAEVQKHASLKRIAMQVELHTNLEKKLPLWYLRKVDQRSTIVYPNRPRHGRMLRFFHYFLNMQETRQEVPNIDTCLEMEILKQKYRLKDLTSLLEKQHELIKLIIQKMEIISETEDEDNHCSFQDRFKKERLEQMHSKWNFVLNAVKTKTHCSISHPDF

T1 sequence (O75762 whole entry): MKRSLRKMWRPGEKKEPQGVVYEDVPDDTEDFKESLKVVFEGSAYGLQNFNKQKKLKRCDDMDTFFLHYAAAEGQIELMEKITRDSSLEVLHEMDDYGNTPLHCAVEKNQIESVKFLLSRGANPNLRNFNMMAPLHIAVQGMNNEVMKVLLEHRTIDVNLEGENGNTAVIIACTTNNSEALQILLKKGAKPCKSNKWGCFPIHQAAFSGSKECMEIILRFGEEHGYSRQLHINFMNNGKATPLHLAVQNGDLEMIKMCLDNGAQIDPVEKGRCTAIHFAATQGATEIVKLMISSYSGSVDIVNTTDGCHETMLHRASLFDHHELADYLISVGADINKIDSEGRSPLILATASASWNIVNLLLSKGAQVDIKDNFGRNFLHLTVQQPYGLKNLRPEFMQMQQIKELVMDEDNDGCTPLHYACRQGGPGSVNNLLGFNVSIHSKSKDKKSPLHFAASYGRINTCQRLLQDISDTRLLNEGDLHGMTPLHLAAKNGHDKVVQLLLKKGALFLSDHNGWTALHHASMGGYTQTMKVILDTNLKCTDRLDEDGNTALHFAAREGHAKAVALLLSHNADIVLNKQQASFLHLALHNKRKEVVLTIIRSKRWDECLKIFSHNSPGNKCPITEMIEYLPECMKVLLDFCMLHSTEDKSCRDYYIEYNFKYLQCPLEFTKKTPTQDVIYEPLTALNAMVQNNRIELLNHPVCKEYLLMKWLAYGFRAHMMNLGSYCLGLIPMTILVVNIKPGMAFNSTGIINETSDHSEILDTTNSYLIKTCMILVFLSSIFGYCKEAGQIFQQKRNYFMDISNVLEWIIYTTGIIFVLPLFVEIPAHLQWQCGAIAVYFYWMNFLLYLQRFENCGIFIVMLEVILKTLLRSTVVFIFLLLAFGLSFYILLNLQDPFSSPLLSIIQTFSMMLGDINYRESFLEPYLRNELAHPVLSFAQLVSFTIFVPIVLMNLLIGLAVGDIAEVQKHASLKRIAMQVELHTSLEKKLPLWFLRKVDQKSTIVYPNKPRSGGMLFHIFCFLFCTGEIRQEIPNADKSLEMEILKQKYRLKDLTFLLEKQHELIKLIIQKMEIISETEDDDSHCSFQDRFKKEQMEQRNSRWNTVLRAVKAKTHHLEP
Chain of TRPM8 (Homo sapiens, UniProt Q7Z2W7) (Q7Z2W7 whole entry, species assumed): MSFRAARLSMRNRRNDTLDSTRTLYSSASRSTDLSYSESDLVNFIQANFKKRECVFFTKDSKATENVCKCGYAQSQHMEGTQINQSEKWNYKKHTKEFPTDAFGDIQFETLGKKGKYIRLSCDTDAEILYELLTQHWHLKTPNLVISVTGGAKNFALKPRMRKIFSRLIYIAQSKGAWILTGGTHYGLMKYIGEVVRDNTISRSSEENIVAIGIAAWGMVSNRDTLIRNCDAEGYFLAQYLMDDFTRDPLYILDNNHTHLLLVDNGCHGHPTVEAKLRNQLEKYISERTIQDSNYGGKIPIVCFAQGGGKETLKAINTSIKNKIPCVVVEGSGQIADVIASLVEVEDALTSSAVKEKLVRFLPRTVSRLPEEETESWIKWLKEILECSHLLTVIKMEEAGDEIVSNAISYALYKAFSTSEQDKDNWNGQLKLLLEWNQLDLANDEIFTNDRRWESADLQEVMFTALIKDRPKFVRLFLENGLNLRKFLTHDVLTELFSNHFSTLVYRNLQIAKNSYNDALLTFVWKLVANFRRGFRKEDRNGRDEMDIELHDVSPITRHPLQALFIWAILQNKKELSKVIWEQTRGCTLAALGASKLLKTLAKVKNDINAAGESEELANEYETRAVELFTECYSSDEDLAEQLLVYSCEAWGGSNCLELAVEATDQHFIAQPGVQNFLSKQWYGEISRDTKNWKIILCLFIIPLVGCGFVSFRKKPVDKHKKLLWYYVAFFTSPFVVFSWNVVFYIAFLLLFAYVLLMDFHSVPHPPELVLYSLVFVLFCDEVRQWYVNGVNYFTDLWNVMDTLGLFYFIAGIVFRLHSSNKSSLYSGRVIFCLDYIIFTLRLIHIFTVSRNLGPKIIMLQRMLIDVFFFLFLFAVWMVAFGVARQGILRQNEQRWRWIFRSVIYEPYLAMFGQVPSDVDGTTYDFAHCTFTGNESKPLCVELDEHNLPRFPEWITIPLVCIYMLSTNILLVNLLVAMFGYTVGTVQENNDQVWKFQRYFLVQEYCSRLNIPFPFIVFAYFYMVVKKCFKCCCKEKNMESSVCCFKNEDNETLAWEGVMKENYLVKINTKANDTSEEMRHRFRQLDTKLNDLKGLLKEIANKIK
Chain of TRPM8 (Mus musculus, UniProt Q8R4D5) (Q8R4D5 whole entry): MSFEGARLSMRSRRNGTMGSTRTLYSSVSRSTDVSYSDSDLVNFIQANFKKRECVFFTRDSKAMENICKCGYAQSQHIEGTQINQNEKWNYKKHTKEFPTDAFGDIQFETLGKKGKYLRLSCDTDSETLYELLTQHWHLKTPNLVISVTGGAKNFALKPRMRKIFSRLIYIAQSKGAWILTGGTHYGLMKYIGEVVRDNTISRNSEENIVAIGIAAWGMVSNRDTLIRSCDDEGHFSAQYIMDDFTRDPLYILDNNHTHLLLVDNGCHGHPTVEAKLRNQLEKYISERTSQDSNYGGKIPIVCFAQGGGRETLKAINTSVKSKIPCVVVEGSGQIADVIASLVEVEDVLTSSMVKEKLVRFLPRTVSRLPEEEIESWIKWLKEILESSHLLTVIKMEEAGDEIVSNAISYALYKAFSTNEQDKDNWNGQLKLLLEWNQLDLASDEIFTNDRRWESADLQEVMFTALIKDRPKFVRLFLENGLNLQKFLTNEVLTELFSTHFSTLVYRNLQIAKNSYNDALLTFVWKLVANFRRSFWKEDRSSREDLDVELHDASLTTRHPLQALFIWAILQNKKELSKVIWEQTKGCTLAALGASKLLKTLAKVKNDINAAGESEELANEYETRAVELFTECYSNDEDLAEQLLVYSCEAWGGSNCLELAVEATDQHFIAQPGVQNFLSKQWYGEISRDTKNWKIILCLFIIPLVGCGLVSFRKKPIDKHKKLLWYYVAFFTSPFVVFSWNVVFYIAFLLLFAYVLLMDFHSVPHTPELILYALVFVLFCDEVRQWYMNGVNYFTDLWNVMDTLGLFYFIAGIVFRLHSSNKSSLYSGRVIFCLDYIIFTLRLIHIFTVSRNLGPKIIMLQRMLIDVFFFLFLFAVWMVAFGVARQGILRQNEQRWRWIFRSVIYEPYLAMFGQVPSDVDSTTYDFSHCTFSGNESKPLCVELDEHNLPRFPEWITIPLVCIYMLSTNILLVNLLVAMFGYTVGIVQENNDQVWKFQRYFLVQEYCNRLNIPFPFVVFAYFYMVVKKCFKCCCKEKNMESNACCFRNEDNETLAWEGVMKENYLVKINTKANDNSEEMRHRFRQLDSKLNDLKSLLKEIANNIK

## CC1CCC(C(C)C)C(OC(=O)C(C)O)C1 (stereo not shown) [Menthyl Lactate]
TRPM8 [1]; TRPM8 FLIPR
  temporal response: quick response with a quick loss of signal
TRPM8 [1]; TRPM8 FLIPR, read-out: response relative to the maximal response of amide coolers
  Emax: ~50%
[2]
  relative cooling strength: about 2.9
TRPM8 [3]
  response relative to the level of menthol: 50%

## Ethyl 3-(p-menthane-3-carboxamido)acetate [WS-5]
TRPM8 [1]
  comparison of TRPM8 and TRPA1 response: TRPM8 responding better
  response of TRPM8 channel: responded
Human TRPA1
  response of TRPA1: responded
[2]
  Relative Cooling Strengths: 400
  relative cooling strength: about 16.7

## CC(C)[C@@H]1CC[C@@H](C)C[C@H]1O [Menthol]
TRPM8 [1]; TRPM8 FLIPR
  temporal response: quick response with deterioration over time

## C=CCN=C=S [mustard oil, allyl isothiocyanate]
TRPA1
  activation of TRPA1: activates TRPA1

## CCNC(=O)C1CC(C)CCC1C(C)C (stereo not shown) [WS-3, N-ethyl-p-menthane-3-carboxamide]
TRPM8 [1]
  comparison of TRPM8 and TRPA1 response: TRPM8 responding better
  response of TRPM8 channel: responded
Human TRPA1
  response of TRPA1: responded
[2]
  Relative Cooling Strengths: 150
  relative cooling strength: 10.0

## CC1CCC(C(C)C)C(C(=O)NC(C)(C)C)C1 (stereo not shown) [WS-14, N-t-butyl-p-menthane-3-carboxamide]
[2]
  Relative Cooling Strengths: 75
  relative cooling strength: about 5.0

## CC(=O)CC(=O)OC1CC(C)CCC1C(C)C (stereo not shown) [Ultracool 7]
TRPM8 [1]
  response of TRPM8 channel: did not respond well; also recorded: no response
Human TRPA1
  response of TRPA1: responded to a wide range of concentrations

## CC1CCC(C(C)C)C(C(=O)OCCO)C1 (stereo not shown) [WS-4, Ethyleneglycol p-menthane-3-carboxylate]
[2]
  Relative Cooling Strengths: 23

## CNC(=O)C(C)(C(C)C)C(C)C [WS-23, 2-Isopropyl-N,2,3-trimethylbutyramide]
[2]
  Relative Cooling Strengths: 75
  relative cooling strength: about 5.0

## CC1CCC(C(C)C)C(O)C1 (single isomer, unassigned; (-)) [(−)-Neomenthol]
[2]
  Relative Cooling Strengths: 3

## NC(=O)CI [iodoacetamide]
TRPA1
  activation of TRPA1: bind and activate TRPA1

## CC(C)[C@@H]1CC[C@@H](C)C[C@H]1OCC(O)CO (mixture of isomers) [(2RS)-3-1-menthoxy)propane-1,2-diol]
[2]
  Relative Cooling Strengths: 22.5

## CNC(=O)C1C(C)CCCC1(C)C (stereo not shown) [N,2,2,6-Tetramethylcyclohexane-1-carboxamide]
[2]
  relative cooling strength: about 1.0

## CC1CCC(C(C)(C)O)C(O)C1 (stereo not shown) [PMD 38, p-menthane-3,8-diol]
[2]
  Relative Cooling Strengths: 11

## CC1CCC(C(C)C)C(O)C1 (single isomer, unassigned; (+)) [(+)-Menthol]
[2]
  Relative Cooling Strengths: 27

## CC1CCC(C(C)C)C(O)C1 (single isomer, unassigned; (-)) [(−)-Menthol]
[2]
  Relative Cooling Strengths: 100

## (−)-Neoisomenthol
[2]
  Relative Cooling Strengths: 13

## (−)-isopulegol [Coolact P]
[2]
  Relative Cooling Strengths: 25

## CC1CCC(C(C)C)C(OC(=O)C(C)O)C1 (stereo not shown) [Frescolat MGA, menthyl lactate]
[2]
  Relative Cooling Strengths: 41

## CC(C)[C@@H]1CC[C@H](C)C[C@H]1O [(+)-Isomenthol]
[2]
  Relative Cooling Strengths: 11

## CC(C)[C@@H]1CC[C@@H](C)C[C@H]1OC(=O)CCCC(=O)O [monomenthyl glutarate]
[2]
  relative cooling strength: about 3.5

## C=CCc1ccc(O)c(OC)c1 [eugenol]
Mouse TRPA1 channel
  activation of mouse TRPA1 channel: activated

## CC(C)[C@H]1CC[C@@H](C)C[C@@H]1O [(−)-Isomenthol]
[2]
  Relative Cooling Strengths: 3

## CC(C)[C@@H]1CC[C@@H](C)C[C@H]1OC[C@H](O)CO [(2R)-3-1-menthoxy)propane-1,2-diol]
[2]
  Relative Cooling Strengths: 15.8

## COc1ccc(NC(=O)C2CC(C)CCC2C(C)C)cc1 (stereo not shown) [WS-12, N-(4-methoxyphenyl)-p-menthane-3-carboxamide]
[2]
  Relative Cooling Strengths: 150

## CS(=O)(=O)SCCN [(2-aminoethyl)methanethiosulfonate]
TRPA1
  activation of TRPA1: bind and activate TRPA1

## CC(C)[C@@H]1CC[C@@H](C)C[C@H]1[O+](C)C(=O)CCCC(=O)O [Cooler 2]
TRPM8 [1]
  response of TRPM8 channel: did not respond well

## (+)-Neoisomenthol
[2]
  Relative Cooling Strengths: 3

## 1-glyceryl p-menthane-3-carboxylate [WS-30]
[2]
  Relative Cooling Strengths: 22.5
  relative cooling strength: about 1.5

## CC(C)[C@@H]1CC[C@@H](C)C[C@@H]1O [(+)-Neomenthol]
[2]
  Relative Cooling Strengths: 32

## CCCCC[C@H](O)CC(=O)CCc1ccc(O)c(OC)c1 [gingerol]
Mouse TRPA1 channel
  activation of mouse TRPA1 channel: activated

## CC(C)[C@@H]1CC[C@@H](C)C[C@H]1OC[C@@H](O)CO [(2S)-3-1-menthoxy)propane-1,2-diol]
[2]
  Relative Cooling Strengths: 39.5

## O=CC=Cc1ccccc1 [cinnamaldehyde]
Mouse TRPA1 channel
  activation of mouse TRPA1 channel: activated

## COC(=O)c1ccccc1O [methyl salicylate]
Mouse TRPA1 channel
  activation of mouse TRPA1 channel: activated
